According to paper PMC7948455, “Novel drug discovery platform for spinocerebellar ataxia, using fluorescence technology targeting β-III-spectrin” (The Journal of Biological Chemistry, 2020):
pKd: −log10 of the molar value. “And” between values parts separate entries of the source, which are not always exact repeats. Equal entries are not always repeated.

Assays:
ABD L253P = molecular target: T1, ABD L253P (Homo sapiens, UniProt O15020, L253P); test: Sedimentation of ABD L253P without actin (aggregation); details: 10 μM Hit compound, n = 4
T1 construct: the β-III-spectrin (human) ABD residues 1 to 284; His-SUMO (cleaved yes); made in house; host or cells: E. coli BL21(DE3), vector pE-SUMOpro
T1 sequence (O15020 1-284 L253P): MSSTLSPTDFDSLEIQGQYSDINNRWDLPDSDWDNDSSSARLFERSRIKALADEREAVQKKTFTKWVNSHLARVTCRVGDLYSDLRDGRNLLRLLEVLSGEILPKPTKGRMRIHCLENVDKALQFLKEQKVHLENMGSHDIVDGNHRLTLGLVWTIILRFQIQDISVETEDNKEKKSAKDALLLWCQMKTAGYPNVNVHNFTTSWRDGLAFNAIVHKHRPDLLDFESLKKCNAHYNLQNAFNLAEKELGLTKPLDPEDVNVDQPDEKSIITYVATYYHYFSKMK
Description: In addition to a reduction in cell viability, the primary and counter screen may be sensitive to compounds that promote ABD-L253P protein aggregation. […] Our assay measuring ABD-L253P cosedimentation with actin is not sensitive to ABD aggregation, as it is designed to work under conditions where ∼90% ABD-L253P cosediments with actin. Nevertheless, we repeated these measurements in the absence of actin.
(§1) F-actin and ABD binding assays were performed as previously described ([10]). In brief, binding assays used 1 μM ABD protein, 1 μM F-actin, and 1 to 50 μM compound (as indicated) or DMSO control for a total reaction volume of 60 μl in F-buffer containing 10 mM Tris, pH 7.5, 150 mM NaCl, 0.5 mM ATP, 2 mM MgCl2, and 1 mM DTT. Following 30 min incubation at room temperature (21 °C). F-actin was pelleted using centrifugation at 100,000g at 25 °C for 30 min. Unbound ABD in the supernatant was measured following SDS-PAGE and Coomassie blue staining in accord ([10]). In addition, control cosedimentations assays that lacked actin were performed to test if compounds cause ABD aggregation. F-actin and Lifeact-mCherry binding assays were undertaken with 2 μM Lifeact-mCherry, 30 μM F-actin, and 1 to 50 μM compound (as indicated) or DMSO control for a total reaction volume of 80 μl in F-buffer. For a no-actin binding control, an assay sample with no F-actin was also set up. Binding reactions were allowed to reach equilibrium at room temperature (21 °C) for 30 min, and then F-actin was pelleted by centrifugation at 100,000g at 25 °C for 30 min. The amount of unbound Lifeact-mCherry was sampled by loading 7 μl of spin supernatant on a low-volume black bottom 384-well plate (Greiner). Amount of mCherry was determined by acquiring fluorescence spectrum peak intensity at ∼600 nm using a spectral unmixing plate reader (Fluorescence Innovations, Inc) equipped with a 532 nm laser (Laserglow Technologies, Ontario, Canada) for excitation, 532 nm long-pass filter for emission, and PMT for emission detection. The fraction of Lifeact-mCherry bound to F-actin was determined by subtracting from one the fraction of supernatant fluorescence intensity relative to the no-actin control sample:(3) Lifeactboundfraction=1−Fcompound/DMSO/FNo−actin where Fcontrol/DMSO is the peak mCherry fluorescence of assay samples containing compound or DMSO control, and Fno-actin is the peak mCherry fluorescence of assay samples that contained no F-actin.

[1] = molecular target: T2, binding of the mutant β-III-spectrin L253P ABD to F-actin (Homo sapiens, UniProt O15020, L253P); test: Primary live-cell FRET assay (GFP-ABD-L253P + Lifeact-mCherry) in HEK293-6E cells; assay type: cell-based; details: for Effect of Hit compound on primary FRET: LOPAC Hits (10 μM screen, 4SD threshold, 120 min) and dose response
T2 construct: the β-III-spectrin (human) ABD residues 1 to 284; expressed in transfected cells; host or cells: HEK293-6E (pTT5 vector, transient transfection)
T2 sequence (O15020 1-284 L253P): as above
Description: To develop a biosensor that monitors the binding of mutant L253P β-III-spectrin to actin filaments in live cells, a FRET approach was tested. A FRET donor construct consisting of green fluorescent protein fused to the N terminus of the mutant ABD (GFP-ABD-L253P) was coexpressed in HEK293-EBNA1-6E (HEK293-6E) cells with a FRET acceptor construct consisting of the actin-binding peptide, Lifeact, fused to the N terminus of red fluorescent protein, mCherry (Lifeact-mCherry). Lifeact is a 17 amino acid peptide derived from the yeast actin-binding protein, ABP140 ([15]). […] The cryo-EM structures of ABD L253P and Lifeact on actin indicate that the binding sites overlap on actin units. With ABD L253P and Lifeact bound on neighboring actin units, we predicted an average distance of ∼80 Å between GFP and mCherry (Fig. 1). With a known Förster distance R0 of 52.4 Å ([17]), this corresponds to FRET value of 0.07, a sufficient signal for a biosensor platform. To design a system most compatible for large production and eventual screening of 50,000+ compound libraries, we used HEK293-6E cells, a suspension cell line that yields greater levels (>threefold) of recombinant protein expression ([18], [19]).
With a constant amount of GFP-ABD-L253P expressed, increased Lifeact-mCherry expression increases FRET with an exponential plateau to 0.12 (Fig. 2A). To measure the nonspecific component of our FRET readout, we concurrently tested expression of mCherry in place of Lifeact-mCherry. For comparison, the Lifeact-mCherry and mCherry fluorescence intensity values (normalized to 1:1 GFP-ABD:Lifeact-mCherry sample) are plotted on the X-axis for samples transfected with different donor-to-acceptor DNA ratios. […] With the trade-off between high FRET and minimal nonspecific FRET, the donor:acceptor ratio 1:2 was chosen for the experiments that followed (Fig. 2A). […] Of note, we also tested the biosensor using WT-ABD, which yielded substantially lower FRET (Fig. S1), consistent with the 1000-fold decrease in affinity of WT-ABD for actin ([10]). We proceeded to test the compatibility of the GFP-ABD-L253P and Lifeact-mCherry assay for primary compound screening and the GFP-ABD-L253P and mCherry assay as a potential high-throughput counter screen.
To test the performance of the assay in HTS, the 1280 LOPAC compounds, together with 256 DMSO controls, were dispensed in 5 nl volumes into individual wells of 1536-well microplates and stored at −20 °C until use. To test the reproducibility of replicate screens on the same day, a single batch of HEK293 cells was transfected with GFP-ABD-L253P and Lifeact-mCherry. In addition, control cells were transfected with only GFP-ABD-L253P, to determine compound effect on donor-only lifetime (τD). To test reproducibility of the screens across different days, identical transfections were performed on another batch of HEK293-6E cells on a second day. Following plate thaw, 5 μl of assay cells were loaded in each well via a multidrop liquid dispenser, and a time course of compound effects (at 20, 120, and 180 min post load) on fluorescence lifetime was acquired using a fluorescence lifetime plate reader (FLT-PR). This technology has been advanced to high-density 1536-well plates in recent years for successful HTS using a range of protein biosensors including sarcoplasmic reticulum Ca-ATPase ([24], [25], [26], [27]), ryanodine receptor ([23], [28]), actin ([20]), tumor necrosis factor receptor 1 ([29], [30]), and tau ([31]).
At 2 × 10^6 cells/ml, HEK293-6E cells were transfected with GFP-ABD-L253P or GFP-ABD-WT (2.4 μg), Lifeact-mCherry (2.4–16.8 μg), mCherry (1.2–16.8 μg), and/or pTT5 (0.8–17.6 μg), as indicated, using the 293fectin protocol (Thermo Fisher Scientific) with 20 μg total DNA. Cells were transfected with either GFP-ABD-L253P or –WT, but coexpression of the WT and mutant isoform was not explored in this study. The cells were harvested 24 h later by centrifugation at 100g for 5 min and then washed twice with PBS. […]

HEK293-6E cells = test: Trypan blue cell viability assay; assay type: cell-based
Description: HEK293-6E cell viability was measured using trypan blue (0.03%) staining and a Countess Automated Cell counter (Invitrogen). Nontransfected HEK293-6E cells were spun at 100g for 5 min at 21 °C and resuspended in 10 ml of PBS. The centrifugation and resuspension were repeated twice more. Final cell concentration was 1 × 10^6 cells/ml. Cells were incubated with 2% DMSO or 3 to 50 μM compound (as indicated) for 3 h at room temperature (21 °C). After addition of 100 μl of 0.06% trypan blue solution in PBS, 10 μl was loaded on a slide and injected into the cell counter, and cell viability was measured.

mammalian cells = details: cited from earlier work
[2] = molecular target: T3, Lifeact-mCherry binding to actin (Oryctolagus cuniculus, UniProt P68135); test: F-actin and Lifeact-mCherry cosedimentation assay; details: for Effect on actin-Lifeact cosedimentation: 10 μM Hit compound
T3 construct: from tissue; host or cells: actin: rabbit psoas muscle; Lifeact-mCherry: made in house in E. coli (pE-SUMOpro)
Description: (§2) Actin was purified from acetone powder derived from the psoas muscle of New Zealand white rabbit (Oryctolagus cuniculus) ([46]). Filamentous (F)-actin was stored for up to 3 days on ice before use in binding assays. Within an hour of the binding assay, the F-actin was clarified at 100,000g at 4 °C for 10 min prior to setting up binding assays. The L253P β-III-spectrin ABD was expressed in E. coli BL21(DE3) (Novagen). The ABD was purified and the His-SUMO tag proteolytically removed, as previously described ([14]), except size-exclusion chromatography was not performed due to the high purity of the ABD protein. Lifeact-mCherry protein was similarly prepared. A Bradford assay was performed to determine clarified F-actin and ABD protein concentrations.
as §1

[3] = molecular target: T4, ABD-L253P binding to actin (Homo sapiens, UniProt O15020, L253P); test: F-actin and ABD cosedimentation assay; details: 3 μM swinholide A, 50 μM tegaserod; n = 4
T4 construct: the β-III-spectrin (human) ABD residues 1 to 284; His-SUMO (cleaved yes); made in house; host or cells: E. coli BL21(DE3), vector pE-SUMOpro; actin from rabbit psoas muscle tissue
T4 sequence (O15020 1-284 L253P): as above
Description: as §2, §1

actin filaments = details: read-out: Affinity for actin; cited from earlier work
[4] = 10 μM Hit compound, 3 h incubation

Compound | Effect on ABD pelleting without actin (aggregation) (ABD L253P) | Effect of Hit compound on primary FRET [1] | Effect on HEK293-6E cell viability (HEK293-6E cells; [4]) | Effect on actin-Lifeact cosedimentation [2] | also measured
CCCc1c(-c2ccc(O)cc2)nn(-c2ccc(O)cc2)c1-c1ccc(O)cc1 [PPT] | trend toward increasing | decrease FRET |  |  | 
CCCCCCCCCCCCCCCC(=O)OC(CC(=O)[O-])C[N+](C)(C)C (racemic) [palmitoyl-DL-carnitine] |  | decrease FRET | dramatically reduced | decreased | Effect on cell viability in mammalian cells (mammalian cells): reduce cell viability
CC(C)(Sc1ccc(CCN(CCCCC2CCCCC2)C(=O)NC2CCCCC2)cc1)C(=O)O [GW7647] | promote aggregation | decrease FRET | dramatically reduced | decreased | 
Cc1cc2c(C(C)C)c(O)c(O)c(C=O)c2c(O)c1-c1c(C)cc2c(C(C)C)c(O)c(O)c(C=O)c2c1O [gossypol] | promote aggregation | decrease FRET |  |  | Reduction of cell viability (mammalian cells; 10 μM ref 36, 37, 38): < 10%
[H]/N=C(/NCCCCC)N/N=C/c1c[nH]c2ccc(OC)cc12 [tegaserod] |  |  |  |  | Effect on ABD-L253P cosedimentation with actin [3]: no significant effect; Effect on HEK293-6E cell viability (HEK293-6E cells; 3 μM swinholide A, 50 μM tegaserod, 3 h): greatly diminished; Decrease in cell viability (HEK293-6E cells; 50 μM tegaserod, 3 h): 92%; Reduction of Total FRET in primary FRET assay ([1]; 50 μM tegaserod, relative to DMSO): > 50% and 83%; Effect on Lifeact-mCherry cosedimentation with actin ([2]; 3 μM swinholide A, 50 μM tegaserod): did not alter
GFP-ABD-L253P: green fluorescent protein fused to N terminus of the mutant β-III-spectrin ABD (L253P); FRET donor |  |  |  |  | pKd (actin filaments): 7.12
Clc1ccc(C(c2ccc(Cl)cc2)n2cc[n+](CC(OCc3ccc(Cl)cc3Cl)c3ccc(Cl)cc3Cl)c2)cc1 (centres unmarked) [calmidazolium] |  | decrease FRET | dramatically reduced | decreased | Effect on cell viability in mammalian cells (mammalian cells): reduce cell viability
